Source: PubChem BioAssay AID1082 (University of Pittsburgh Molecular Library Screening Center, 2008)
Where “and” joins values, the source holds several entries; their conditions need not be identical. Equal entries are not always repeated. Calls of active or inactive are those of the source. How the calls were made is not given here.

Target: Serine/threonine-protein kinase PLK1 (Homo sapiens) (UniProt P53350)
Assay: Plk1 PBD phosphopeptide interaction blockers – biochemical, fluorescence polarization, synthesized analogs, IC50, SAR follow-up (AID 1082)
Settings: PLK1 PBD phosphopeptide binding

Chain of Serine/threonine-protein kinase PLK1 (Homo sapiens) (P53350 whole entry, looked up): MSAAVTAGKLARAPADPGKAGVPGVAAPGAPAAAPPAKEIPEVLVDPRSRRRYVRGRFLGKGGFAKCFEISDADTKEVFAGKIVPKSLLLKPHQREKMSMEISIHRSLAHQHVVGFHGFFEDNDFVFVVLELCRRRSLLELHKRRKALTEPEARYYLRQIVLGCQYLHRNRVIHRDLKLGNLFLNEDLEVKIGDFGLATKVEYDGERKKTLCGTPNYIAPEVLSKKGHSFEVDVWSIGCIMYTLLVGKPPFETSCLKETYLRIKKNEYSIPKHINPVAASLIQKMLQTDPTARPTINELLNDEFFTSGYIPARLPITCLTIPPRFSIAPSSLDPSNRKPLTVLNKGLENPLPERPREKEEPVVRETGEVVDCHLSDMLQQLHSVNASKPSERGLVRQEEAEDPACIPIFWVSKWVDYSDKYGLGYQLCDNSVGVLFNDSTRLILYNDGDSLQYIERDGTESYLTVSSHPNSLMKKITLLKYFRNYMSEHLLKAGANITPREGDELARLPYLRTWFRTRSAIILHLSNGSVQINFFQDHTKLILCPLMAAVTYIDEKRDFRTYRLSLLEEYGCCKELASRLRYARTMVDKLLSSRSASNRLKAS

Row | SMILES | IC50
1 | O=C(N/N=C/c1c(O)[nH]c(=O)[nH]c1=O)c1ccncc1 | > 50 µM (inactive)
2 | Cc1ccc(N=Cc2c(O)n(-c3ccc(C)cc3)c(=O)[nH]c2=O)cc1 | > 50 µM (inactive)
3 | CCCCOC(=O)c1ccc(NC(=O)c2c(N)n(C)c(=O)[nH]c2=O)cc1 | > 50 µM (inactive)
4 | Cn1c2c(c(=O)n(C)c1=O)C(c1ccc(C(F)(F)F)cc1)CC(=O)N2 (stereo not given) | > 50 µM (inactive)
5 | CCCCOC(=O)c1ccc(NC(=O)c2c(O)[nH]c(=O)[nH]c2=O)cc1 | > 50 µM (inactive)
6 | CCOC(=O)c1ccc(NC(=O)c2c(N)n(C)c(=O)[nH]c2=O)cc1 | > 50 µM (inactive)
7 | CCOC(=O)c1ccc(NC(=O)c2c(N)n(Cc3ccccc3)c(=O)[nH]c2=O)cc1 | > 50 µM (inactive)
8 | CCOC(=O)c1cccc(NC(=O)c2c(N)n(C)c(=O)[nH]c2=O)c1 | > 50 µM (inactive)
9 | Cn1c(N)c(S(=O)(=O)Nc2ccccc2)c(=O)n(C)c1=O | > 50 µM (inactive)
10 | Cn1cc(C(=O)CNc2ccccc2)c(=O)n(C)c1=O | > 50 µM (inactive)
11 | CCOC(=O)c1ccc(NC(=O)c2c(NCc3ccccc3)[nH]c(=O)[nH]c2=O)cc1 | > 50 µM (inactive)
12 | Cc1ccc(NC(=O)c2c[nH]c(=O)[nH]c2=O)cc1 | > 50 µM (inactive)
13 | CCOc1ccc(NC(=O)c2c(O)[nH]c(=O)[nH]c2=O)cc1 | > 50 µM (inactive)
14 | CC(C)c1ccc(NC(=O)COC(=O)c2c[nH]c(=O)[nH]c2=O)cc1 | > 50 µM (inactive)
15 | CCOC(=O)c1ccc(NC(=O)c2c(O)[nH]c(=O)[nH]c2=O)cc1 | > 50 µM (inactive) and 2.89 µM
16 | CCOC(=O)c1cccc(NC(=O)c2c(O)[nH]c(=O)[nH]c2=O)c1 | > 50 µM (inactive)
17 | COc1ccc(/C=C/C(=O)c2c(O)n(CCC3=CCCCC3)c(=O)[nH]c2=O)cc1 | > 50 µM (inactive)
18 | CCCOc1ccc(C(=O)Nc2c[nH]c(=O)[nH]c2=O)cc1 | > 50 µM (inactive)

Row | SMILES | IC50
19 | CCOc1ccc(NC(=O)c2c(N)n(C)c(=O)[nH]c2=O)cc1 | > 50 µM (inactive)
20 | CCOC(=O)c1ccccc1NC(=O)c1c(O)[nH]c(=S)[nH]c1=O | > 50 µM (inactive)
21 | Cn1c(N)c(C(=O)Nc2ccccc2)c(=O)[nH]c1=O | > 50 µM (inactive)
22 | O=c1[nH]c(NC2CCCCC2)c([N+](=O)[O-])c(=O)[nH]1 | > 50 µM (inactive)
23 | CCOC(=O)c1ccc(NS(=O)(=O)c2c(N)n(C)c(=O)n(C)c2=O)cc1 | > 50 µM (inactive)
24 | O=c1[nH]c(=S)[nH]c(O)c1/C=N/Nc1ccccc1 | > 50 µM (inactive)
25 | CCOC(=O)CCCCCNC(=O)c1c(N)n(C)c(=O)n(C)c1=O | > 50 µM (inactive)
26 | O=C(Nc1ccccc1)c1c(O)[nH]c(=O)[nH]c1=O | > 50 µM (inactive)
27 | CCC(=O)Oc1ccc(C(=O)Nc2c[nH]c(=O)[nH]c2=O)cc1 | > 50 µM (inactive)
28 | CCOC(=O)c1ccc(NS(=O)(=O)c2c(N)[nH]c(=O)[nH]c2=O)cc1 | > 50 µM (inactive)
29 | CCOC(=O)c1ccccc1NC(=O)c1c(O)[nH]c(=O)[nH]c1=O | > 50 µM (inactive)
30 | COC(=O)c1ccccc1NC(=O)c1c(O)c2c([nH]c1=O)CCCC2 | > 50 µM (inactive)
31 | CCOC(=O)c1cccc(NC(=O)c2c(NCc3ccccc3)[nH]c(=O)[nH]c2=O)c1 | > 50 µM (inactive)
32 | CCOC(=O)c1ccccc1NC(=O)c1c(N)n(C)c(=O)[nH]c1=O | > 50 µM (inactive)
33 | CCOC(=O)c1ccc(NC(=O)c2c(N)n(C)c(=O)n(C)c2=O)cc1 | > 50 µM (inactive)
34 | CC1(C)CC(=O)C(C2(O)C(=O)NC(=O)NC2=O)=C(O)C1 | > 50 µM (inactive)
35 | O=C(Nc1ccccc1)c1c(O)[nH]c(=S)[nH]c1=O | > 50 µM (inactive)
